# Measured values reported in ChEMBL document CHEMBL1154297, “Inhibitor profiling of the Pseudomonas aeruginosa virulence factor LasB using N-alpha mercaptoamide template-based inhibitors” (Bioorg Med Chem Lett, 2009).
# Biological target: Elastase (Pseudomonas aeruginosa (strain ATCC 15692 / PAO1 / 1C / PRS 101 / LMG12228), UniProt P14756)
# Assay: Inhibition of Pseudomonas aeruginosa LasB by fluorimetric assay in buffer of pH 7.2
# Settings: not given; call rule not given here
# Chain of Elastase (P14756 whole entry): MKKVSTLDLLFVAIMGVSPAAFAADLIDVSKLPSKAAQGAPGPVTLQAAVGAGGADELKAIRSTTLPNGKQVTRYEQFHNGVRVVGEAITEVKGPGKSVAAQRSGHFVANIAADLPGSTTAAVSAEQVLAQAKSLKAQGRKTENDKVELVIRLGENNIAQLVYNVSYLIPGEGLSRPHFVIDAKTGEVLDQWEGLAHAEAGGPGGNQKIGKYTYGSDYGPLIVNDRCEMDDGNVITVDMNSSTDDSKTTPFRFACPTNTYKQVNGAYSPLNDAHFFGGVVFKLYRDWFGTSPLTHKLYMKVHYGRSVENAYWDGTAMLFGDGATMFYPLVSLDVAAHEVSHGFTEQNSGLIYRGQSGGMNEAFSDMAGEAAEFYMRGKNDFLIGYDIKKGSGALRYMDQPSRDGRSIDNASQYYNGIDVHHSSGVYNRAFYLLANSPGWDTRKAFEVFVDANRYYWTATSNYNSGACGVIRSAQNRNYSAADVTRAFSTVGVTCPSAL
row,Ki,Compound
1,Not Active,N=C(N)NCCC[C@H](NC(=O)[C@H](CCCCN)NC(=O)CS)C(N)=O
2,Not Active,C[C@@H](O)[C@H](NC(=O)CS)C(=O)N[C@@H](CCCCN)C(N)=O
3,Not Active,NC(=O)CC[C@H](NC(=O)CS)C(=O)N[C@@H](Cc1ccccc1)C(N)=O
4,Not Active,NC(=O)[C@H](CC(=O)O)NC(=O)[C@H](CCC(=O)O)NC(=O)CS
5,Not Active,NC(=O)[C@H](Cc1ccccc1)NC(=O)[C@@H]1CCCN1C(=O)CS
6,Not Active,NC(=O)[C@H](Cc1c[nH]c2ccccc12)NC(=O)[C@H](CO)NC(=O)CS
7,Not Active,CC(C)C[C@H](NC(=O)[C@@H](NC(=O)CS)[C@@H](C)O)C(N)=O
8,Not Active,NC(=O)[C@H](CC(=O)O)NC(=O)CNC(=O)CS
9,Not Active,CC[C@@H](C)[C@H](NC(=O)CS)C(=O)N[C@@H](Cc1ccccc1)C(N)=O
10,Not Active,N=C(N)NCCC[C@H](NC(=O)[C@H](Cc1c[nH]cn1)NC(=O)CS)C(N)=O
11,Not Active,CC(C)C[C@H](NC(=O)CS)C(=O)N[C@H](C(N)=O)C(C)C
12,Not Active,NC(=O)[C@H](CC(=O)O)NC(=O)[C@H](Cc1c[nH]cn1)NC(=O)CS
13,Not Active,C[C@@H](O)[C@H](NC(=O)CS)C(=O)N[C@@H](CC(=O)O)C(N)=O
14,Not Active,NC(=O)CC[C@H](NC(=O)CS)C(=O)N[C@@H](CC(=O)O)C(N)=O
15,Not Active,NCCCC[C@H](NC(=O)[C@H](CO)NC(=O)CS)C(N)=O
16,Not Active,CC(C)C[C@H](NC(=O)[C@H](CCC(=O)O)NC(=O)CS)C(N)=O
17,Not Active,CSCC[C@H](NC(=O)CS)C(=O)N[C@@H](CC(C)C)C(N)=O
18,Not Active,C[C@H](NC(=O)CS)C(=O)N[C@@H](Cc1ccccc1)C(N)=O
19,Not Active,NCCCC[C@H](NC(=O)CS)C(=O)N[C@@H](Cc1c[nH]c2ccccc12)C(N)=O

# Same assay, conditions: read-out: Ki
row,Compound,Ki [µM]
1,NCCCC[C@H](NC(=O)[C@H](CC(N)=O)NC(=O)CS)C(N)=O,289
2,NC(=O)[C@H](Cc1c[nH]c2ccccc12)NC(=O)[C@H](CCC(=O)O)NC(=O)CS,704
3,CC(C)[C@H](NC(=O)[C@@H](NC(=O)CS)[C@@H](C)O)C(N)=O,377
4,CC(C)C[C@H](NC(=O)[C@H](CCC(N)=O)NC(=O)CS)C(N)=O,540
5,CC(C)[C@H](NC(=O)[C@H](CS)NC(=O)CS)C(N)=O,161
6,C[C@@H](O)[C@H](NC(=O)CS)C(=O)N[C@@H](CCCN=C(N)N)C(N)=O,616
7,CSCC[C@H](NC(=O)CS)C(=O)N[C@@H](CCCNC(=N)N)C(N)=O,6.6
8,CC(C)[C@H](NC(=O)[C@H](CCC(=O)O)NC(=O)CS)C(N)=O,730
9,CC[C@@H](C)[C@H](NC(=O)CS)C(=O)N[C@H](C(N)=O)C(C)C,1.8
10,NC(=O)[C@H](Cc1c[nH]c2ccccc12)NC(=O)CNC(=O)CS,122
11,CC(C)[C@H](NC(=O)[C@H](Cc1ccc(O)cc1)NC(=O)CS)C(N)=O,0.77
12,CC(C)C[C@H](NC(=O)CS)C(=O)N[C@@H](CCCNC(=N)N)C(N)=O,623
13,CC(C)C[C@H](NC(=O)[C@H](CO)NC(=O)CS)C(N)=O,510
14,CC(C)C[C@H](NC(=O)[C@H](CC(N)=O)NC(=O)CS)C(N)=O,508
15,CC(C)[C@H](NC(=O)[C@H](Cc1c[nH]cn1)NC(=O)CS)C(N)=O,47
16,CC(C)[C@H](NC(=O)[C@H](Cc1ccccc1)NC(=O)CS)C(N)=O,11
17,NC(=O)C[C@H](NC(=O)CS)C(=O)N[C@@H](Cc1ccccc1)C(N)=O,37
18,CSCC[C@H](NC(=O)CS)C(=O)N[C@@H](CCCCN)C(N)=O,3.9
19,CC(C)C[C@H](NC(=O)[C@H](Cc1c[nH]c2ccccc12)NC(=O)CS)C(N)=O,3.7
20,CC(C)[C@H](NC(=O)[C@H](CCC(N)=O)NC(=O)CS)C(N)=O,937
21,CC(C)C[C@H](NC(=O)[C@H](CC(=O)O)NC(=O)CS)C(N)=O,118
22,NCCCC[C@H](NC(=O)[C@H](CCCCN)NC(=O)CS)C(N)=O,433
23,NC(=O)CC[C@H](NC(=O)CS)C(=O)N[C@@H](Cc1c[nH]c2ccccc12)C(N)=O,91
24,NC(=O)[C@H](Cc1c[nH]c2ccccc12)NC(=O)[C@H](Cc1ccccc1)NC(=O)CS,206
25,CC(C)C[C@H](NC(=O)[C@H](Cc1ccccc1)NC(=O)CS)C(N)=O,645
26,NC(=O)[C@H](Cc1c[nH]c2ccccc12)NC(=O)[C@H](CCCN=C(N)N)NC(=O)CS,125
27,CC(C)[C@H](NC(=O)CS)C(=O)N[C@@H](CCCN=C(N)N)C(N)=O,69

row,Compound,Ki [µM]
1,NCCCC[C@H](NC(=O)[C@H](Cc1c[nH]cn1)NC(=O)CS)C(N)=O,332
2,CC(C)C[C@H](NC(=O)CS)C(=O)N[C@@H](Cc1c[nH]c2ccccc12)C(N)=O,300
3,NC(=O)[C@H](Cc1c[nH]c2ccccc12)NC(=O)[C@H](CS)NC(=O)CS,108
4,NCCCC[C@H](NC(=O)CS)C(=O)N[C@@H](CC(=O)O)C(N)=O,971
5,NC(=O)[C@H](Cc1c[nH]c2ccccc12)NC(=O)[C@H](Cc1ccc(O)cc1)NC(=O)CS,14
6,N=C(N)NCCC[C@H](NC(=O)[C@@H]1CCCN1C(=O)CS)C(N)=O,56
7,NC(=O)[C@H](Cc1ccccc1)NC(=O)[C@H](Cc1cnc[nH]1)NC(=O)CS,21
8,NC(=O)[C@H](CCCN=C(N)N)NC(=O)[C@H](Cc1ccc(O)cc1)NC(=O)CS,3
9,NCCCC[C@H](NC(=O)[C@H](CC(=O)O)NC(=O)CS)C(N)=O,491
10,CC[C@@H](C)[C@H](NC(=O)CS)C(=O)N[C@@H](CC(=O)O)C(N)=O,142
11,CC(C)[C@H](NC(=O)[C@H](Cc1c[nH]c2ccccc12)NC(=O)CS)C(N)=O,4.1
12,CC(C)[C@H](NC(=O)CNC(=O)CS)C(N)=O,457
13,NCCCC[C@H](NC(=O)CNC(=O)CS)C(N)=O,451
14,NCCCC[C@H](NC(=O)[C@@H]1CCCN1C(=O)CS)C(N)=O,766
15,NC(=O)[C@H](CCCN=C(N)N)NC(=O)[C@H](CC(=O)O)NC(=O)CS,551
16,NCCCC[C@H](NC(=O)[C@H](Cc1c[nH]c2ccccc12)NC(=O)CS)C(N)=O,10
17,NCCCC[C@H](NC(=O)[C@H](Cc1ccccc1)NC(=O)CS)C(N)=O,76
18,CC(C)C[C@H](NC(=O)CS)C(=O)N[C@@H](Cc1ccccc1)C(N)=O,113
19,NCCCC[C@H](NC(=O)[C@H](CS)NC(=O)CS)C(N)=O,274
20,CC[C@@H](C)[C@H](NC(=O)CS)C(=O)N[C@@H](Cc1c[nH]c2ccccc12)C(N)=O,366
21,CC(C)C[C@H](NC(=O)[C@H](CC(C)C)NC(=O)CS)C(N)=O,53
22,NC(=O)[C@H](CC(=O)O)NC(=O)[C@H](CCCN=C(N)N)NC(=O)CS,650
23,NC(=O)[C@H](CCCN=C(N)N)NC(=O)[C@H](Cc1c[nH]c2ccccc12)NC(=O)CS,25
24,NC(=O)[C@H](Cc1ccccc1)NC(=O)[C@H](CCCN=C(N)N)NC(=O)CS,224
25,CC(C)C[C@H](NC(=O)[C@@H](NC(=O)CS)C(C)C)C(N)=O,69
26,CC(C)[C@H](NC(=O)CS)C(=O)N[C@@H](CCCCN)C(N)=O,22
27,NC(=O)CC[C@H](NC(=O)CS)C(=O)N[C@@H](CCCN=C(N)N)C(N)=O,217
